This note sets out measurements from PubChem BioAssay AID330 (DTP/NCI, 2004).

“And” between values parts separate entries of the source, which are not always exact repeats. Equal values may be shown once. Inconclusive results and toxic doses are left out.

This assay deals with P388 leukemia ip, CD2F1 mice, survival T/C. Description: NCI In Vivo Anticancer Drug Screen. Data for tumor model P388 Leukemia (intraperitoneal) in CD2F1 (CDF1) mice. The following applies: endpoint: median survival time, higher = longer survival. An outline of the steps:
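Mice carrying the transplanted tumor received test compound or vehicle. Survival was recorded in each group, and the value is the treated-group measurement divided by that of the vehicle-treated control group.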

Where [1] appears, read: dose: 50.0 mg/kg/injection, schedule: Q01DX005 (ip), vehicle: Klucel (hydroxypropylcellulose) (HPC).
[2] abbreviates: dose: 100.0 mg/kg/injection, schedule: Q01DX005 (ip), vehicle: Klucel (hydroxypropylcellulose) (HPC).
Setting [3] is: dose: 50.0 mg/kg/injection, schedule: Q01DX009 (ip), vehicle: saline.
Setting [4] is: dose: 100.0 mg/kg/injection, schedule: Q01DX009 (ip), vehicle: saline.
Setting [5] is: dose: 25.0 mg/kg/injection, schedule: Q01DX009 (ip), vehicle: saline with Tween-80.
[6] abbreviates: dose: 50.0 mg/kg/injection, schedule: Q01DX009 (ip), vehicle: saline with Tween-80.
Setting [7] is: dose: 100.0 mg/kg/injection, schedule: Q01DX009 (ip), vehicle: saline with Tween-80.
[8] abbreviates: dose: 200.0 mg/kg/injection, schedule: Q01DX009 (ip), vehicle: saline with Tween-80.
The mark [9] stands for this setting: dose: 60.0 mg/kg/injection, schedule: Q01DX005 (ip), vehicle: Klucel (hydroxypropylcellulose) (HPC).
[10] abbreviates: dose: 120.0 mg/kg/injection, schedule: Q01DX005 (ip), vehicle: Klucel (hydroxypropylcellulose) (HPC).
Where [11] appears, read: dose: 240.0 mg/kg/injection, schedule: Q01DX005 (ip), vehicle: Klucel (hydroxypropylcellulose) (HPC).
Where [12] appears, read: dose: 50.0 mg/kg/injection, schedule: Q01DX009 (ip), vehicle: Klucel (hydroxypropylcellulose) (HPC).
Where [13] appears, read: dose: 100.0 mg/kg/injection, schedule: Q01DX009 (ip), vehicle: Klucel (hydroxypropylcellulose) (HPC).
The mark [14] stands for this setting: dose: 200.0 mg/kg/injection, schedule: Q01DX009 (ip), vehicle: Klucel (hydroxypropylcellulose) (HPC).

Turning to `CNC(=O)Sc1nnnc2ccccc12`, the T/C is 109 % of control (dose: 100.0 mg/kg/injection, schedule: Q01DX001 (ip), vehicle: saline with Tween-80); 104 % of control (dose: 200.0 mg/kg/injection, schedule: Q01DX001 (ip), vehicle: saline with Tween-80); 118 % of control (dose: 400.0 mg/kg/injection, schedule: Q01DX001 (ip), vehicle: saline with Tween-80).
`CC(=O)OC1=C2C(C)(C)OC3CC(=O)OCC23C2CCC3(C)C(c4ccoc4)OC(=O)C4OC43C2(C)C1=O` (stereo not drawn): the T/C by setting is: (dose: 0.5 mg/kg/injection, schedule: Q01DX009 (ip), vehicle: saline + alcohol) 113 % of control; (dose: 1.0 mg/kg/injection, schedule: Q01DX009 (ip), vehicle: saline + alcohol) 110 % of control; (dose: 2.0 mg/kg/injection, schedule: Q01DX009 (ip), vehicle: saline + alcohol) 107 % of control; (dose: 4.0 mg/kg/injection, schedule: Q01DX009 (ip), vehicle: saline + alcohol) 101 % of control.
On to `N/C(=N\S(=O)(=O)c1ccccc1)[N+](=O)[O-]`, for which the T/C was 102 % of control under setting [1]; 102 % of control under setting [2]; 98 % of control (dose: 200.0 mg/kg/injection, schedule: Q01DX005 (ip), vehicle: Klucel (hydroxypropylcellulose) (HPC)).
On to `COc1ccc(C2CC(=O)C(C)C(c3ccc(OC)cc3)N2)cc1` (stereo not drawn), for which the T/C runs as follows: under setting [3], 100 % of control; under setting [4], 104 % of control; (dose: 200.0 mg/kg/injection, schedule: Q01DX009 (ip), vehicle: saline) 100 % of control.
On to `CC1=C2C(=O)[C@H]3[C@@H](CC=C4C[C@@H](O)CC[C@@]43C)[C@@H]2CC[C@]12O[C@@H]1C[C@H](C)CN[C@H]1[C@H]2C`, for which the T/C was 98 % of control under setting [5], 92 % of control under setting [6] and 92 % of control under setting [7].
For `COc1cc(/C=N/N2CN(C(C)C(=O)O)B(Nc3ncccn3)N=C2N)cc(OC)c1` (stereo not drawn), the T/C is 103 % of control (dose: 60.0 mg/kg/injection, schedule: Q01DX005 (ip), vehicle: saline); 111 % of control (dose: 120.0 mg/kg/injection, schedule: Q01DX005 (ip), vehicle: saline); 112 % of control (dose: 240.0 mg/kg/injection, schedule: Q01DX005 (ip), vehicle: saline).
As to `CCCCOP(=O)(O)OCCCC.[U]`, the T/C (dose: 6.25 mg/kg/injection, schedule: Q01DX009 (ip), vehicle: saline with Tween-80) is 97 % of control.
As to `OC1COC2C(O)COC12` (stereo not drawn), the T/C is 102 % of control under setting [3] and 90 % of control under setting [4].
Consider `CC(C)(C(=O)O)c1ccc(C(=O)O)c(Br)c1`, for which the T/C is 91 % of control under setting [6], 93 % of control under setting [7] and 101 % of control under setting [8].
For `c1c2c(cc3c1OCN(C1CC1)C3)OCN(C1CC1)C2`, the T/C is 94 % of control under setting [6], 90 % of control under setting [7] and 96 % of control under setting [8].
Turning to `O=C1CSC(c2ccco2)N1c1nncs1` (stereo not drawn), the T/C is, setting by setting: (dose: 30.0 mg/kg/injection, schedule: Q01DX005 (ip), vehicle: Klucel (hydroxypropylcellulose) (HPC)) 100 % of control; under setting [9], 100 % of control; under setting [10], 103 % of control; under setting [11], 108 % of control.
Consider `Cc1ccc(C2=Nc3ccccc3SC(c3cccc([N+](=O)[O-])c3)C2)cc1` (stereo not drawn), for which the T/C (dose: 3.12 mg/kg/injection, schedule: Q01DX009 (ip), vehicle: saline) is 90 % of control; the T/C (dose: 6.25 mg/kg/injection, schedule: Q01DX009 (ip), vehicle: saline) is 97 % of control; the T/C (dose: 12.5 mg/kg/injection, schedule: Q01DX009 (ip), vehicle: saline) is 88 % of control; the T/C under setting [3] is 86 % of control.
As to `CCCCCCCCCCCCCCCC(=O)N(CCCCN(CCCN(C)C)C(=O)CCCCCCCCCCCCCCC)CCCN(C)C`, the T/C (dose: 12.5 mg/kg/injection, schedule: Q01DX009 (ip), vehicle: saline with Tween-80) is 90 % of control and the T/C under setting [5] is 90 % of control.
Consider `O=NNc1ccc(S(=O)(=O)c2ccccc2)cn1`, for which the T/C is, setting by setting: (dose: 3.12 mg/kg/injection, schedule: Q01DX009 (ip), vehicle: sodium bicarbonate) 98 % of control; (dose: 6.25 mg/kg/injection, schedule: Q01DX009 (ip), vehicle: sodium bicarbonate) 98 % of control; (dose: 12.5 mg/kg/injection, schedule: Q01DX009 (ip), vehicle: sodium bicarbonate) 94 % of control and 96 % of control; (dose: 25.0 mg/kg/injection, schedule: Q01DX009 (ip), vehicle: sodium bicarbonate) 100 % of control and 104 % of control; (dose: 50.0 mg/kg/injection, schedule: Q01DX009 (ip), vehicle: sodium bicarbonate) 109 % of control; (dose: 100.0 mg/kg/injection, schedule: Q01DX009 (ip), vehicle: sodium bicarbonate) 160 % of control.
For the molecule `CCc1cc(COC(C)=O)on1`, the T/C reads like this: under setting [12], 105 % of control; under setting [13], 109 % of control; under setting [14], 109 % of control.
Take `CCCCC(O)/C=C(C)/C=C/C=C/C(=O)N1CCCC1=O` (stereo not drawn): the T/C is 113 % of control (dose: 25.0 mg/kg/injection, schedule: Q01DX009 (ip), vehicle: Klucel (hydroxypropylcellulose) (HPC)); 113 % of control under setting [12]; 110 % of control under setting [13]; 110 % of control under setting [14]; 118 % of control (dose: 400.0 mg/kg/injection, schedule: Q01DX009 (ip), vehicle: Klucel (hydroxypropylcellulose) (HPC)).
On to `COC1=C(C)C2CC(OC)OC3CC4CCCCC4(C)C(C1=O)C32C` (stereo not drawn), for which the T/C was 105 % of control (dose: 25.0 mg/kg/injection, schedule: Q01DX005 (ip), vehicle: Klucel (hydroxypropylcellulose) (HPC)); 99 % of control under setting [1]; 92 % of control under setting [2].
As to `O=P1(c2ccccc2)Cc2ccccc2N1Cc1ccccc1` (stereo not drawn), the T/C is 100 % of control (dose: 50.0 mg/kg/injection, schedule: Q01DX005 (ip), vehicle: saline with Tween-80); 103 % of control (dose: 100.0 mg/kg/injection, schedule: Q01DX005 (ip), vehicle: saline with Tween-80); 104 % of control (dose: 200.0 mg/kg/injection, schedule: Q01DX005 (ip), vehicle: saline with Tween-80).
Take `CN(C)C(=O)c1cccc2ccc[n+](C)c12`: the T/C reads like this: (dose: 78.0 micrograms/kg/injection, schedule: Q04DX002 (ip), vehicle: saline) 98 % of control; (dose: 156.0 micrograms/kg/injection, schedule: Q04DX002 (ip), vehicle: saline) 99 % of control; (dose: 312.0 micrograms/kg/injection, schedule: Q04DX002 (ip), vehicle: saline) 98 % of control.
With `CC1CC(=O)NC(N)=N1` (stereo not drawn), the T/C was 98 % of control (dose: 50.0 mg/kg/injection, schedule: Q01DX005 (ip), vehicle: saline); 108 % of control (dose: 100.0 mg/kg/injection, schedule: Q01DX005 (ip), vehicle: saline); 104 % of control (dose: 200.0 mg/kg/injection, schedule: Q01DX005 (ip), vehicle: saline).
With `CCOC1CC(=O)C2(C)C3CCC4(C)C(C(C)C5CC(C)=C(C)C(=O)O5)CCC4C3CC3OC32C1O` (stereo not drawn), the T/C (dose: 9.12 mg/kg/injection, schedule: Q01DX009 (ip), vehicle: saline + alcohol) was 101 % of control; the T/C (dose: 18.25 mg/kg/injection, schedule: Q01DX009 (ip), vehicle: saline + alcohol) is 96 % of control; the T/C (dose: 36.5 mg/kg/injection, schedule: Q01DX009 (ip), vehicle: saline + alcohol) is 100 % of control.
Consider `CCCC1(CCC)CCC2C3CCC4CC(O)CCC4(C)C3CCC2(C)N1O` (stereo not drawn), for which the T/C runs as follows: (dose: 100.0 mg/kg/injection, schedule: Q01DX001 (ip), vehicle: Klucel (hydroxypropylcellulose) (HPC)) 92 % of control; (dose: 200.0 mg/kg/injection, schedule: Q01DX001 (ip), vehicle: Klucel (hydroxypropylcellulose) (HPC)) 89 % of control; (dose: 400.0 mg/kg/injection, schedule: Q01DX001 (ip), vehicle: Klucel (hydroxypropylcellulose) (HPC)) 91 % of control.
For the molecule `O=C1OC2(O)c3ccccc3C(=O)N2N2CCCC12` (stereo not drawn), the T/C is 109 % of control under setting [9], 98 % of control under setting [10] and 98 % of control under setting [11].
